US5914341A, “Inhibitors of farnesyl-protein transferase” (Merck & Co., Inc., priority 1998, dated 1999)
Where a name gives a salt, the structure may show the parent alone.

Biological target: T1, human FPTase (Homo sapiens, UniProt P49354+P49356)
T1 construct: made in house
Assay: In vitro inhibition of ras farnesyl transferase (human FPTase assay)
Format: biochemical
Conditions: [3H]-FPP incorporation, 100 nM Ras-CVIM substrate, 30 min; read-out: IC50, inhibitory activity against human FPTase

N#Cc1ccc(Cn2cncc2COC(=O)Nc2cccc(Cl)c2)cc1 [Example 1, N-(3-chlorophenyl)-O-[1-(4-cyanobenzyl)-5-imidazolylmethyl]-carbamate hydrochloride] was tested, and the IC50 was < 30 µM.
With CCCCCN(C(=O)OCc1cncn1Cc1ccc(C#N)cc1)c1cccc(Cl)c1 [Example 2, N-(3-chlorophenyl)-N-(n-pentyl)-O-[1-(4-cyanobenzyl)-5-imidazolylmethyl]carbamate hydrochloride] the IC50 was < 30 µM.
